ChEMBL document CHEMBL2396590, “Inhibition of HIV-1 integrase dimerization and activity with crosslinked interfacial peptides” (Bioorg Med Chem, 2013)
Calls of active or inactive are those of the source. The calls are words filed in the database; no cut-off is given here. Starred links: 1 amine or outer side, 2 acyl side, 3 side chain; linkers in the order of their positions; H or OH if unused. Non-standard residues stand in square brackets, D forms with d. Residues, ends and D or L forms follow the SMILES beside them. X2 = O=C(C1CCCC(CN[*:1])C1)[*:2]; X3 = O=C(CC1CCN([*:1])CC1)[*:2]; X4 = O=C(CCC(=O)[*:2])CN[*:1]; Ahx = NCCCCCC(=O)O

What was measured:
[1] = system: Human immunodeficiency virus type 1 integrase (Human immunodeficiency virus 1), Q7ZJM1 [F185K,C280S]; test: Inhibition of HIV1 integrase F185K/C280S double mutant dimerization expressed in Escherichia coli BL21 (DE3) at 100 fold excess compound concentration after 1 hr by PAGE analysis
[2] = system: Human immunodeficiency virus type 1 integrase (Human immunodeficiency virus 1), Q7ZJM1 [F185K,C280S]; test: Inhibition of HIV1 integrase F185K/C280S double mutant dimerization expressed in Escherichia coli BL21 (DE3) at 110 uM after 1 hr by PAGE analysis
[3] = molecular target: Human immunodeficiency virus type 1 integrase (Human immunodeficiency virus 1, UniProt Q7ZJM1, C280S/F185K); test: Inhibition of HIV1 3'-processing activity of integrase F185K/C280S double mutant expressed in Escherichia coli BL21 (DE3)

| Compound | inhibition [1] | inhibition [2] | IC50 [3] |
| --- | --- | --- | --- |
| CC[C@H](C)[C@H](NC(=O)[C@H](CC(=O)O)NC(=O)[C@@H](NC(=O)[C@H](C)NC(=O)[C@@H](NC(=O)[C@@H](NC(=O)[C@H](CC(=O)O)NC(=O)[C@@H](NC(=O)[C@@H](NC(=O)[C@H](CCCNC(=N)N)NC(=O)[C@H](CCC(=O)O)NC(=O)CNC(=O)[C@H](C)NC(=O)CCCCCNC(=O)[C@H](CCCNC(=N)N)NC(=O)[C@H](CCCCN)NC(=O)[C@H](Cc1ccccc1)NC(=O)[C@H](CC(N)=O)NC(=O)[C@H](Cc1cnc[nH]1)NC(=O)[C@@H](NC(=O)[C@H](Cc1ccccc1)NC(=O)[C@@H](NC(=O)[C@H](C)NC(=O)[C@H](CCSC)NC(=O)[C@H](CCC(N)=O)NC(=O)[C@@H](NC(=O)[C@H](C)NC(=O)[C@@H](NC(=O)[C@H](CCCCN)NC(=O)[C@H](CC(C)C)NC(=O)[C@@H](N)Cc1cnc[nH]1)[C@@H](C)O)C(C)C)C(C)C)[C@@H](C)CC)[C@@H](C)CC)C(C)C)[C@@H](C)CC)[C@@H](C)CC)[C@@H](C)O)C(=O)N[C@@H](CCC(N)=O)C(N)=O (H-HLKTAVQMAVFIHNFKR[Ahx]AGERIVDIIATDIQ-NH2) | inactive | inactive | 1.5 µM |
| CC[C@H](C)[C@H](NC(=O)[C@H](CC(=O)O)NC(=O)[C@@H](NC(=O)[C@H](C)NC(=O)[C@@H](NC(=O)[C@@H](NC(=O)[C@H](CC(=O)O)NC(=O)[C@@H](NC(=O)[C@@H](NC(=O)[C@H](CCCNC(=N)N)NC(=O)[C@H](CCC(=O)O)NC(=O)CNC(=O)[C@H](C)NC(=O)C1CCCC(CNC(=O)[C@H](CCCNC(=N)N)NC(=O)[C@H](CCCCN)NC(=O)[C@H](Cc2ccccc2)NC(=O)[C@H](CC(N)=O)NC(=O)[C@H](Cc2cnc[nH]2)NC(=O)[C@@H](NC(=O)[C@H](Cc2ccccc2)NC(=O)[C@@H](NC(=O)[C@H](C)NC(=O)[C@H](CCSC)NC(=O)[C@H](CCC(N)=O)NC(=O)[C@@H](NC(=O)[C@H](C)NC(=O)[C@@H](NC(=O)[C@H](CCCCN)NC(=O)[C@H](CC(C)C)NC(=O)[C@@H](N)Cc2cnc[nH]2)[C@@H](C)O)C(C)C)C(C)C)[C@@H](C)CC)C1)[C@@H](C)CC)C(C)C)[C@@H](C)CC)[C@@H](C)CC)[C@@H](C)O)C(=O)N[C@@H](CCC(N)=O)C(N)=O (stereo partly specified) (H-HLKTAVQMAVFIHNFKR[X2]AGERIVDIIATDIQ-NH2) |  | Active | 1 µM |
| CC[C@H](C)[C@H](NC(=O)[C@H](CC(=O)O)NC(=O)[C@@H](NC(=O)[C@H](C)NC(=O)[C@@H](NC(=O)[C@@H](NC(=O)[C@H](CC(=O)O)NC(=O)[C@@H](NC(=O)[C@@H](NC(=O)[C@H](CCCNC(=N)N)NC(=O)[C@H](CCC(=O)O)NC(=O)CNC(=O)[C@H](C)NC(=O)CC1CCN(C(=O)[C@H](CCCNC(=N)N)NC(=O)[C@H](CCCCN)NC(=O)[C@H](Cc2ccccc2)NC(=O)[C@H](CC(N)=O)NC(=O)[C@H](Cc2cnc[nH]2)NC(=O)[C@@H](NC(=O)[C@H](Cc2ccccc2)NC(=O)[C@@H](NC(=O)[C@H](C)NC(=O)[C@H](CCSC)NC(=O)[C@H](CCC(N)=O)NC(=O)[C@@H](NC(=O)[C@H](C)NC(=O)[C@@H](NC(=O)[C@H](CCCCN)NC(=O)[C@H](CC(C)C)NC(=O)[C@@H](N)Cc2cnc[nH]2)[C@@H](C)O)C(C)C)C(C)C)[C@@H](C)CC)CC1)[C@@H](C)CC)C(C)C)[C@@H](C)CC)[C@@H](C)CC)[C@@H](C)O)C(=O)N[C@@H](CCC(N)=O)C(N)=O (H-HLKTAVQMAVFIHNFKR[X3]AGERIVDIIATDIQ-NH2) |  | Active | 0.57 µM |
| CC[C@H](C)[C@H](NC(=O)[C@H](CC(=O)O)NC(=O)[C@@H](NC(=O)[C@H](C)NC(=O)[C@@H](NC(=O)[C@@H](NC(=O)[C@H](CC(=O)O)NC(=O)[C@@H](NC(=O)[C@@H](NC(=O)[C@H](CCCNC(=N)N)NC(=O)[C@H](CCC(=O)O)NC(=O)CNC(=O)[C@H](C)NC(=O)CCC(=O)CNC(=O)[C@H](CCCNC(=N)N)NC(=O)[C@H](CCCCN)NC(=O)[C@H](Cc1ccccc1)NC(=O)[C@H](CC(N)=O)NC(=O)[C@H](Cc1cnc[nH]1)NC(=O)[C@@H](NC(=O)[C@H](Cc1ccccc1)NC(=O)[C@@H](NC(=O)[C@H](C)NC(=O)[C@H](CCSC)NC(=O)[C@H](CCC(N)=O)NC(=O)[C@@H](NC(=O)[C@H](C)NC(=O)[C@@H](NC(=O)[C@H](CCCCN)NC(=O)[C@H](CC(C)C)NC(=O)[C@@H](N)Cc1cnc[nH]1)[C@@H](C)O)C(C)C)C(C)C)[C@@H](C)CC)[C@@H](C)CC)C(C)C)[C@@H](C)CC)[C@@H](C)CC)[C@@H](C)O)C(=O)N[C@@H](CCC(N)=O)C(N)=O (H-HLKTAVQMAVFIHNFKR[X4]AGERIVDIIATDIQ-NH2) |  | Active | 0.43 µM |
| H-HLKTAVQMAVFIHNFKRKGGIGGYSAGERIVDIIATDIQ-NH2 |  | Active | 1.7 µM |
